The source of these data is PubChem BioAssay AID330 (DTP/NCI, 2004).

The test deals with P388 leukemia ip, CD2F1 mice, survival T/C. As to the kind of experiment: NCI In Vivo Anticancer Drug Screen. Data for tumor model P388 Leukemia (intraperitoneal) in CD2F1 (CDF1) mice. The settings on record: endpoint: median survival time, higher = longer survival. Summed up: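 Mice carrying the transplanted tumor received test compound or vehicle. Survival was recorded in each group, and the value is the treated-group measurement divided by that of the vehicle-treated control group.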

Where [1] appears, read: dose: 12.5 mg/kg/injection, schedule: Q01DX009 (ip), vehicle: saline.
Where [2] appears, read: dose: 25.0 mg/kg/injection, schedule: Q01DX009 (ip), vehicle: saline.
[3] abbreviates: dose: 50.0 mg/kg/injection, schedule: Q01DX009 (ip), vehicle: saline with Tween-80.
Setting [4] is: dose: 50.0 mg/kg/injection, schedule: Q01DX009 (ip), vehicle: saline.
The mark [5] stands for this setting: dose: 100.0 mg/kg/injection, schedule: Q04DX003 (ip), vehicle: saline with Tween-80.
The mark [6] stands for this setting: dose: 60.0 mg/kg/injection, schedule: Q01DX005 (ip), vehicle: saline with Tween-80.
Where [7] appears, read: dose: 120.0 mg/kg/injection, schedule: Q01DX005 (ip), vehicle: saline with Tween-80.
Setting [8] is: dose: 240.0 mg/kg/injection, schedule: Q01DX005 (ip), vehicle: saline with Tween-80.
Setting [9] is: dose: 100.0 mg/kg/injection, schedule: Q01DX009 (ip), vehicle: saline with Tween-80.
[10] abbreviates: dose: 100.0 mg/kg/injection, schedule: Q01DX009 (ip), vehicle: saline.
Setting [11] is: dose: 200.0 mg/kg/injection, schedule: Q01DX009 (ip), vehicle: saline with Tween-80.
Setting [12] is: dose: 200.0 mg/kg/injection, schedule: Q01DX009 (ip), vehicle: saline.
The mark [13] stands for this setting: dose: 200.0 mg/kg/injection, schedule: Q04DX003 (ip), vehicle: saline with Tween-80.
[14] abbreviates: dose: 400.0 mg/kg/injection, schedule: Q04DX003 (ip), vehicle: saline with Tween-80.
Where [15] appears, read: dose: 50.0 mg/kg/injection, schedule: Q01DX005 (ip), vehicle: Klucel (hydroxypropylcellulose) (HPC).
The mark [16] stands for this setting: dose: 100.0 mg/kg/injection, schedule: Q01DX005 (ip), vehicle: Klucel (hydroxypropylcellulose) (HPC).
The mark [17] stands for this setting: dose: 200.0 mg/kg/injection, schedule: Q01DX005 (ip), vehicle: Klucel (hydroxypropylcellulose) (HPC).
Where [18] appears, read: dose: 50.0 mg/kg/injection, schedule: Q01DX005 (ip), vehicle: saline with Tween-80.
Setting [19] is: dose: 100.0 mg/kg/injection, schedule: Q01DX005 (ip), vehicle: saline with Tween-80.
The mark [20] stands for this setting: dose: 200.0 mg/kg/injection, schedule: Q01DX005 (ip), vehicle: saline with Tween-80.
Setting [21] is: dose: 100.0 mg/kg/injection, schedule: Q04DX002 (ip), vehicle: saline with Tween-80.
The mark [22] stands for this setting: dose: 200.0 mg/kg/injection, schedule: Q04DX002 (ip), vehicle: saline with Tween-80.
Setting [23] is: dose: 400.0 mg/kg/injection, schedule: Q04DX002 (ip), vehicle: saline with Tween-80.
[24] abbreviates: dose: 50.0 mg/kg/injection, schedule: Q01DX009 (ip), vehicle: Klucel (hydroxypropylcellulose) (HPC).
[25] abbreviates: dose: 100.0 mg/kg/injection, schedule: Q01DX009 (ip), vehicle: Klucel (hydroxypropylcellulose) (HPC).
Setting [26] is: dose: 200.0 mg/kg/injection, schedule: Q01DX009 (ip), vehicle: Klucel (hydroxypropylcellulose) (HPC).

Several values for one entry are separate records, joined by “and”; a condition that tells them apart may be missing. Equal entries are not always repeated. Inconclusive results and toxic doses are left out.

As to `CCCCCCCCCCCCCCCCNCCCS(=O)(=O)O`, the T/C is 96 % of control (dose: 6.25 mg/kg/injection, schedule: Q01DX009 (ip), vehicle: saline with Tween-80); 103 % of control (dose: 6.25 mg/kg/injection, schedule: Q01DX009 (ip), vehicle: saline); 107 % of control (dose: 12.5 mg/kg/injection, schedule: Q01DX009 (ip), vehicle: saline with Tween-80); 100 % of control under setting [1]; 100 % of control under setting [2]; 103 % of control under setting [3]. Further, the T/C under setting [4] was 103 % of control.
As to `COC1CCC(NS(=O)(=O)c2ccc(N)cc2)[N-]N1.[Ag+]` (stereo not given), the T/C under setting [1] is 93 % of control; the T/C under setting [2] was 101 % of control; the T/C under setting [4] was 98 % of control and 109 % of control.
As to `O=c1[nH]cc(COCC(F)(F)F)c(=O)[nH]1`, the T/C (dose: 50.0 mg/kg/injection, schedule: Q04DX003 (ip), vehicle: saline with Tween-80) was 99 % of control and the T/C under setting [5] was 111 % of control.
For the compound `COC(=O)C1CSC(c2c(CO)cnc(C)c2O)N1` (stereo not given), the T/C (dose: 100.0 mg/kg/injection, schedule: Q04DX002 (ip), vehicle: saline + Tween-80 + alcohol) is 105 % of control; the T/C (dose: 200.0 mg/kg/injection, schedule: Q04DX002 (ip), vehicle: saline + Tween-80 + alcohol) was 96 % of control; the T/C (dose: 400.0 mg/kg/injection, schedule: Q04DX002 (ip), vehicle: saline + Tween-80 + alcohol) is 107 % of control.
Regarding `O=C(Nc1ccc(C(=O)O)cc1)Nc1cc(C(F)(F)F)ccc1Cl`, the T/C under setting [6] is 105 % of control, the T/C under setting [7] was 105 % of control and the T/C under setting [8] was 105 % of control.
With `COc1ccc(CCN)cc1OC`, the T/C reads like this: under setting [3], 100 % of control; under setting [9], 100 % of control; under setting [10], 108 % of control; under setting [11], 100 % of control; under setting [12], 106 % of control.
Turning to `CN(C)c1nc(N/N=C\C(O)C(O)C(O)C(O)CO)nc(N(C)C)n1` (stereo not given), the T/C reads like this: under setting [5], 112 % of control; under setting [13], 103 % of control; under setting [14], 102 % of control.
Take `CCC1(CC)C(=O)ON(C(C)(C)N2OC(=O)C(CC)(CC)C2=O)C1=O`: the T/C is 102 % of control under setting [15], 104 % of control under setting [16] and 96 % of control under setting [17].
`C[CH](C)[Sn](=[O])[CH](C)C`: the T/C was 113 % of control (dose: 0.78 mg/kg/injection, schedule: Q01DX009 (ip), vehicle: saline); 106 % of control (dose: 1.56 mg/kg/injection, schedule: Q01DX009 (ip), vehicle: saline); 107 % of control (dose: 3.12 mg/kg/injection, schedule: Q01DX009 (ip), vehicle: saline).
On to `O=C1NC(O)c2cccc(Br)c2O1` (stereo not given), for which the T/C under setting [18] was 93 % of control, the T/C under setting [19] is 107 % of control and the T/C under setting [20] was 117 % of control.
As for `COc1ccc(C=Nc2c(N)[nH]c(=S)[nH]c2=O)cc1`, the T/C runs as follows: under setting [21], 100 % of control; under setting [22], 106 % of control; under setting [23], 107 % of control; (dose: 600.0 mg/kg/injection, schedule: Q04DX002 (ip), vehicle: saline with Tween-80) 106 % of control.
With `CON(C)c1nc(N(C)C)nc(N(C)C)n1`, the T/C by setting is: under setting [4], 91 % of control; under setting [10], 98 % of control; under setting [12], 96 % of control.
Turning to `N#CC(C#N)=C(c1ccccc1)c1ccccc1`, the T/C was 95 % of control under setting [24], 110 % of control under setting [25] and 100 % of control under setting [26].
`CC(/C=C/c1cccc(C)c1)=N\NC(N)=S`: the T/C by setting is: (dose: 3.75 mg/kg/injection, schedule: Q01DX005 (ip), vehicle: Klucel (hydroxypropylcellulose) (HPC)) 106 % of control; (dose: 7.5 mg/kg/injection, schedule: Q01DX005 (ip), vehicle: Klucel (hydroxypropylcellulose) (HPC)) 105 % of control; (dose: 30.0 mg/kg/injection, schedule: Q01DX005 (ip), vehicle: Klucel (hydroxypropylcellulose) (HPC)) 122 % of control.
For `COC1=CC2CC(C#N)C2(OC)C=C1` (stereo not given), the T/C reads like this: under setting [6], 97 % of control; under setting [7], 99 % of control; under setting [8], 98 % of control.
For `CCn1c(=O)c2[nH]c(Cl)nc2n(CCOC)c1=O`, the T/C was 116 % of control under setting [24], 96 % of control under setting [25] and 111 % of control under setting [26].
As for `CN1C=CC2C(C#N)CC2C1=O` (stereo not given), the T/C was 101 % of control under setting [21], 110 % of control under setting [22] and 110 % of control under setting [23].
As for `CCCCCCCCCCCCCCCCNC(=S)N=Nc1cc(C(C)C)c(NNC(=S)NCCCCCCCCCCCCCCCC)cc1C`, the T/C under setting [15] is 92 % of control, the T/C under setting [16] was 99 % of control and the T/C under setting [17] is 97 % of control.
Turning to `COc1ccc(CC2C(=O)NC(C)C(=O)N(C)C3Cc4ccc(cc4)Oc4cc(ccc4OC)CC(C(=O)NC(C)C(=O)NC(C)C(=O)N2C)N(C)C3=O)cc1` (stereo not given), the T/C is 161 % of control (dose: 0.5 mg/kg/injection, schedule: Q01DX009 (ip), vehicle: none); 152 % of control (dose: 1.0 mg/kg/injection, schedule: Q01DX009 (ip), vehicle: none); 190 % of control (dose: 2.0 mg/kg/injection, schedule: Q01DX009 (ip), vehicle: none).
Consider `CC1CN(C(=S)NNC(C)c2cc3ccccc3cn2)CC(C)O1` (stereo not given), for which the T/C was 97 % of control (dose: 12.5 mg/kg/injection, schedule: Q01DX005 (ip), vehicle: saline with Tween-80) and 112 % of control (dose: 25.0 mg/kg/injection, schedule: Q01DX005 (ip), vehicle: saline with Tween-80).
Consider `Cc1c([N+](=O)[O-])oc2ccc3ccccc3c12`, for which the T/C under setting [6] is 113 % of control, the T/C under setting [7] is 94 % of control and the T/C under setting [8] was 107 % of control.
With `CC(=C1N=c2ccccc2=N1)c1[nH]c(O)c2ccccc12`, the T/C under setting [3] was 95 % of control, the T/C under setting [9] is 90 % of control and the T/C under setting [11] is 96 % of control.
For `CC(=O)Oc1cc2c(cc1OC(C)=O)C(=O)c1cc3c(cc1C2=O)OCO3`, the T/C was 107 % of control under setting [6], 120 % of control under setting [7] and 108 % of control under setting [8].
`O=[N+]([O-])c1cc2c(c([N+](=O)[O-])c1)OC(C(Cl)(Cl)Cl)OC2C(Cl)(Cl)Cl` (stereo not given): the T/C is 107 % of control under setting [15], 103 % of control under setting [16] and 117 % of control under setting [17].
`CCOC(=O)C(NC(C)=O)(C(=O)OCC)C(C)C(O)c1ccc(OC)c(OC)c1O` (stereo not given): the T/C is 108 % of control under setting [24]; 103 % of control under setting [25]; 109 % of control under setting [26]; 93 % of control (dose: 400.0 mg/kg/injection, schedule: Q01DX009 (ip), vehicle: Klucel (hydroxypropylcellulose) (HPC)).
For the compound `Cc1nc2ccccc2c(=O)n1/N=C/c1ccccc1Cl`, the T/C by setting is: under setting [18], 100 % of control; under setting [19], 99 % of control; under setting [20], 100 % of control.
For `COc1cccc(C2Nc3ccccc3C(=O)N2N2CCOCC2)c1` (stereo not given), the T/C under setting [15] was 100 % of control, the T/C under setting [16] was 94 % of control and the T/C under setting [17] is 96 % of control.
As to `O=C(O)C1CC(=O)N(Cc2ccccc2)C1` (stereo not given), the T/C was 95 % of control under setting [5], 100 % of control under setting [13] and 100 % of control under setting [14].
